Results on seven compounds are retold here after ChEMBL document CHEMBL4321813, “Discovery of GSK3527497: A Candidate for the Inhibition of Transient Receptor Potential Vanilloid-4 (TRPV4)” (J Med Chem, 2019).

Data set [1] addresses Transient receptor potential cation channel subfamily V member 4 (Homo sapiens, UniProt Q9HBA0). In words: Antagonist activity at BacMam virus expressing human TRPV4 transduced in BHK/AC9 or HEK MSR2 cells assessed as inhibition of GSK634775-induced Ca2+ flux preincubated for 10 mins followed by agonist addition by Fluo-4 AM dye based FLIPR assay. It is filed as cell-based. On the technique in general: Calcium assays in cells follow changes in intracellular calcium, usually with a dye or a luminescent sensor.

The nature of data set [2]: Lipophilicity, log D of the compound at pH 7.4 by chromatographic method. It is filed as physicochemical. The settings on record: buffer.
The nature of data set [3]: Solubility of the compound in FaSSIF measured after 4 hrs. It is filed as physicochemical.
Data set [4] is described as follows: MRT in Sprague-Dawley rat at 1 mg/kg, iv administered as 30 mins infusion by HPLC-MS/MS analysis. It is filed as ADME, organism-based. The settings on record: in vivo.
Data set [5] is described as follows: Unbound clearance in Sprague-Dawley rat at 1 mg/kg, iv administered as 30 mins infusion by HPLC-MS/MS analysis. It is filed as ADME, organism-based. The settings on record: in vivo, 0.5 h.
Data set [6] in a line: Oral bioavailability in Sprague-Dawley rat at 1 to 2 mg/kg by HPLC-MS/MS analysis. It is filed as ADME, organism-based. The settings on record: in vivo.
A short description of data set [7]: Protein binding in rat plasma assessed as unbound fraction. In kind it is ADME, cell-free.
A short description of data set [8]: Unbound volume of distribution at steady state in Sprague-Dawley rat at 1 mg/kg, iv administered as 30 mins infusion or 1 to 2 mg/kg, po by HPLC-MS/MS analysis. In kind it is ADME, organism-based. The note with it: in vivo, 0.5 h.
The nature of data set [9]: Mean residence time in dog. In kind it is ADME, Canis lupus familiaris. The settings on record: in vivo.
Data set [10] is described as follows: Clearance in dog. In kind it is ADME, Canis lupus familiaris. The note with it: in vivo.
Data set [11] can be described thus: Clearance in Sprague-Dawley rat at 1 mg/kg, iv administered as 30 mins infusion by HPLC-MS/MS analysis. It is filed as ADME, organism-based. The note with it: in vivo.
A short description of data set [12]: Volume of distribution at steady state in Sprague-Dawley rat at 1 mg/kg, iv administered as 30 mins infusion or 1 to 2 mg/kg, po by HPLC-MS/MS analysis. It is filed as ADME, organism-based. The note with it: in vivo, read-out: Vdss.
The target in data set [13] is Voltage-gated inwardly rectifying potassium channel KCNH2 (Homo sapiens, UniProt Q12809). In words: Inhibition of human ERG by electrophysiology.
Voltage-gated inwardly rectifying potassium channel KCNH2, sequence (Q12809 whole entry): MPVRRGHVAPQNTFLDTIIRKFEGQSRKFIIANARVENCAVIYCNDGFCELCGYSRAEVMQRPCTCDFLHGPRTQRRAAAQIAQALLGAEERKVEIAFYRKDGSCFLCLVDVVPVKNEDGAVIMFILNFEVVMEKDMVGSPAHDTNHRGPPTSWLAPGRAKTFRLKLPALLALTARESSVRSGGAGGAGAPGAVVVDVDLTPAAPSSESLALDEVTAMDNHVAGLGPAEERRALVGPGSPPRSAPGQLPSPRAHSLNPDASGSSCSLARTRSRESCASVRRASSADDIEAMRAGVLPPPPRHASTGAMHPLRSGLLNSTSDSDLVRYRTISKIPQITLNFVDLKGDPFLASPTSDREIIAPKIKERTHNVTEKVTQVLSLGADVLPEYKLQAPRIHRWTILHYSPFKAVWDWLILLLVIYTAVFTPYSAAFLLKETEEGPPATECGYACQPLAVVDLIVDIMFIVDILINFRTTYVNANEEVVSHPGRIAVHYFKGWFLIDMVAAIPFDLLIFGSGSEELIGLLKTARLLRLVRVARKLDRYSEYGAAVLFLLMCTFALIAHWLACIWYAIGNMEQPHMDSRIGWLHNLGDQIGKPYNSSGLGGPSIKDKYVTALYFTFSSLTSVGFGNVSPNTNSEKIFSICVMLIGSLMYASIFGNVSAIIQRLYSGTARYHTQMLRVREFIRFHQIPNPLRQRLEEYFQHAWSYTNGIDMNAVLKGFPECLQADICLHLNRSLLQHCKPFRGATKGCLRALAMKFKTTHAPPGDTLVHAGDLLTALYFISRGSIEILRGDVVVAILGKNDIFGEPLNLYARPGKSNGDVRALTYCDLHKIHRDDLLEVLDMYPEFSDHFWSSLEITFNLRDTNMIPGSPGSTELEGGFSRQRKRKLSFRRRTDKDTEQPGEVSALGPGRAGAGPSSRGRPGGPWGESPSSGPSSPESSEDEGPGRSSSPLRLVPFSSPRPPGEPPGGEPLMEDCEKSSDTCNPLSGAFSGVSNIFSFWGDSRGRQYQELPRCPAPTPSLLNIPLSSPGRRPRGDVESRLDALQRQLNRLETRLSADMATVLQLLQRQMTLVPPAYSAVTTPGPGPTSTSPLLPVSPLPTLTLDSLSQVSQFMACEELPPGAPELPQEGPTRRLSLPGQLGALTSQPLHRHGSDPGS
Data set [14] deals with Cytochrome P450 3A4 (Homo sapiens, UniProt P08684). Nature of the data set: Inhibition of CYP3A4 (unknown origin). It is filed as ADME.
Cytochrome P450 3A4, sequence (P08684 whole entry): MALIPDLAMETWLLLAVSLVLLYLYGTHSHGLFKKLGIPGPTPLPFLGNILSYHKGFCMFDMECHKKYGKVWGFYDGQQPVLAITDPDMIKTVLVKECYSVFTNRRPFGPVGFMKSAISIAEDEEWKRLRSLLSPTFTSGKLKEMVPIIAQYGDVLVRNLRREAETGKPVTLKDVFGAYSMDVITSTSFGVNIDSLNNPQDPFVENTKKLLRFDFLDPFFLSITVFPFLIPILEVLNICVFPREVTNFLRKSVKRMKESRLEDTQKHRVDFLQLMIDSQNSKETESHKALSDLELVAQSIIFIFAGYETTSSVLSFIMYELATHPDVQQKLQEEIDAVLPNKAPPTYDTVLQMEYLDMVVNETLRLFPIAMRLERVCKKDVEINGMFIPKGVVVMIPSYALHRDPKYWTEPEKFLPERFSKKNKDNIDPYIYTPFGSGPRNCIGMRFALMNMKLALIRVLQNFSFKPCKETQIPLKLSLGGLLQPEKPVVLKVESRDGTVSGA
Data set [15] in a line: Apparent permeability in dog MDCK cells. In kind it is ADME, cell-based, Canis lupus familiaris.
Data set [16] in a line: Dose normalized AUC in Sprague-Dawley rat at 100 mg/kg, po by HPLC-MS/MS analysis. The settings on record: in vivo. It is filed as ADME, organism-based.
Data set [17] is described as follows: Oral bioavailability in Sprague-Dawley rat at 100 mg/kg by HPLC-MS/MS analysis. It is filed as ADME, organism-based. The note with it: in vivo.
A short description of data set [18]: Dose normalized AUC in Sprague-Dawley rat at 2 mg/kg, po by HPLC-MS/MS analysis. The note with it: in vivo. It is filed as ADME, organism-based.
Data set [19] can be described thus: Volume of distribution at steady state in dog. It is filed as ADME, Canis lupus familiaris. The note with it: in vivo, read-out: Vdss.
Data set [20] is described as follows: Oral bioavailability in dog. It is filed as ADME, organism-based, Canis lupus familiaris. The note with it: in vivo.
Data set [21] is described as follows: Protein binding in dog plasma assessed as unbound fraction. In kind it is ADME, cell-free, Canis lupus familiaris.
Data set [22] can be described thus: Unbound clearance in dog. It is filed as ADME, Canis lupus familiaris. The note with it: in vivo.
Data set [23] in a line: Unbound volume of distribution at steady state in dog. In kind it is ADME, Canis lupus familiaris. The settings on record: in vivo.
Data set [24] can be described thus: Ratio of unbound clearance in Sprague-Dawley rat at 1 mg/kg, iv administered as 30 mins infusion to unbound clearance in dog. It is filed as ADME, organism-based. The settings on record: in vivo, 0.5 h.
A short description of data set [25]: Unbound AUC in human. In kind it is ADME.

Each structure is given as a SMILES string. In brackets after ≈: the same amount, converted by molar mass.

Transient receptor potential cation channel subfamily V member 4, sequence (Q9HBA0 whole entry): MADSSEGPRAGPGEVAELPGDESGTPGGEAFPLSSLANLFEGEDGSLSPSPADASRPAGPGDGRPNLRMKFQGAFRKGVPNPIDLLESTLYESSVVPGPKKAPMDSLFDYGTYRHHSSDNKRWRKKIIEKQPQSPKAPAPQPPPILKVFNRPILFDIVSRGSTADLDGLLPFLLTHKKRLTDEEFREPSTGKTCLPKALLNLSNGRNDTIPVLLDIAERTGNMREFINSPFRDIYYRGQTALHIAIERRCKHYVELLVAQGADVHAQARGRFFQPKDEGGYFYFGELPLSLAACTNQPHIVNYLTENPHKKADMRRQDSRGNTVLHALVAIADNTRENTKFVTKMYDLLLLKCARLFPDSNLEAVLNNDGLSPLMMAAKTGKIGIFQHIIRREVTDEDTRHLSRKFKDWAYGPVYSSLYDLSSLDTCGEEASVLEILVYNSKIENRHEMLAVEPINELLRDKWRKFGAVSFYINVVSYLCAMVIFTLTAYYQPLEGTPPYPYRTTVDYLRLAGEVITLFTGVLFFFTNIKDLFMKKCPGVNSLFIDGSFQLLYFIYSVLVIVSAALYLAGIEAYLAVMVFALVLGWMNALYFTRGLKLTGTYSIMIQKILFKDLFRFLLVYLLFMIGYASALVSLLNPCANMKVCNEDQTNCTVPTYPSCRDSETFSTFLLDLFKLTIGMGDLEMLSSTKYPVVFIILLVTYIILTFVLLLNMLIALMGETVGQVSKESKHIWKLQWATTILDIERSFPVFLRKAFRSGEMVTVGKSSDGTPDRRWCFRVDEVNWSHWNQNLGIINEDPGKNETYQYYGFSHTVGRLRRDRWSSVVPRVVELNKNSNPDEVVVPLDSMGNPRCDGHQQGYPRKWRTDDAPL

For `N#Cc1ccc(O[C@H]2CN(S(=O)(=O)c3ccc(Cl)cn3)C[C@]2(O)CO)cc1F`, the IC50 in data set [1] is 0.19 µM. The compound also had a chromatographic logD in data set [2] of 3.5. In data set [3], this compound gave a solubility at 4 h of 0.13 mg/mL (≈ 304 µM). For the same compound, in [4], the mean residence time MRT was determined as 3.3 h. The CL free in data set [5] stood at 9 L/h/kg.

As for `N#Cc1ccc(S(=O)(=O)[C@H]2CN(S(=O)(=O)c3ccc(Cl)cc3Cl)C[C@@]2(O)CO)cc1`, the IC50 in [1] amounted to 0.008 µM. In addition, the chromatographic logD in [2] was 4.5. This compound displayed a solubility at 4 h in data set [3] of 0.27 mg/mL (≈ 549 µM). The bioavailability in data set [6] was 100%. For the same compound, the unbound share (fraction unbound) in data set [7] turned out to be 0.027. The same compound yielded a CL free in data set [5] of 55.5 L/h/kg. The same compound gave a Vduss in data set [8] of 85 L/kg.

On to `N#Cc1ccc(S(=O)(=O)[C@H]2CN(S(=O)(=O)c3ccc(Cl)cn3)C[C@@]2(O)CO)cc1`, for which the IC50 in data set [1] stood at 3.8 µM. The chromatographic logD in [2] is 3.1. The compound also displayed a solubility at 4 h in data set [3] of over 1 mg/mL.

`N#Cc1ccc(O[C@H]2CN(S(=O)(=O)c3ccc(Cl)cn3)C[C@@]2(O)CN)cc1F`: the MRT in [9] amounted to 17 h; in data set [4], 2.5 h. The clearance was determined as 0.354 L/h/kg in data set [10] and 2.7 L/h/kg in data set [11]. The IC50 in data set [1] came out at 0.012 µM; in [13], 20 µM; in data set [14] it was 12 µM. The chromatographic logD in data set [2] was 2.5. For the same compound, the solubility at 4 h in [3] was over 1 mg/mL. In addition, the figures for the Vd in data set [12] and in [19] were 6.7 L/kg and 5.9 L/kg, respectively. Also, the bioavailability in data set [6] worked out at 26%; in data set [17] it was 87%; in data set [20], 84%. For the same compound, the fraction unbound in [7] was found to be 0.14; in data set [21], 0.32. Moreover, the CL free in data set [5] is 19.2 L/h/kg; in [22], 1.08 L/h/kg. Further, the values for the Vduss in data set [8] and in data set [23] were 47 L/kg and 18 L/kg, respectively. Also, the apparent permeability coefficient (Papp) in data set [15] worked out at 0.8 nm/s. Moreover, the AUC/dose came out at 0.31 kg·h/L in data set [16] and 0.092 kg·h/L in data set [18]. The Ratio in data set [24] is listed as 18.

In the case of `N#Cc1ccc(O[C@H]2CN(S(=O)(=O)c3ccc(Cl)cc3Cl)C[C@@]2(O)CN)cc1F` (racemic), the IC50 in data set [1] came to 0.0035 µM; in [14], 1.6 µM. This compound also came in with a chromatographic logD in [2] of 4. The compound also yielded a solubility at 4 h in data set [3] of 0.078 mg/mL (≈ 169 µM). This compound also yielded an MRT in data set [4] of 3.2 h. This compound also gave a clearance in data set [11] of 2.4 L/h/kg. In addition, in data set [12], the Vd came to 7.7 L/kg. The same compound gave a bioavailability in data set [6] of 24%. Also, the fraction unbound in data set [7] was determined as 0.036. For the same compound, the CL free in [5] was found to be 66 L/h/kg. This compound showed a Vduss in [8] of 210 L/kg. In addition, the fAUC in data set [25] worked out at 0.17 µg·h/mL.

Regarding `N#Cc1ccc(O[C@H]2CN(S(=O)(=O)c3ccc(Cl)cc3)C[C@@]2(O)CO)cc1F`, in data set [1], the IC50 was determined as 0.053 µM. For the same compound, the chromatographic logD in data set [2] stood at 4.1. Further, in data set [3], the concentration in solution (solubility at 4 h) came to 0.044 mg/mL (≈ 103 µM). This compound yielded an MRT in [4] of 1.9 h. In [11], this compound had a clearance of 3.24 L/h/kg. In addition, the Vd in data set [12] was determined as 6 L/kg. Moreover, the bioavailability in [6] turned out to be 83%. In data set [7], the fraction unbound was found to be 0.035. Besides, the CL free in [5] stood at 92.4 L/h/kg. Also, in [8], the Vduss amounted to 170 L/kg.

As to `N#Cc1ccc(O[C@H]2CN(S(=O)(=O)c3ccc(Cl)cc3Cl)CC2(O)CO)cc1F` (single isomer, unassigned), in data set [1], the IC50 is 0.033 µM. This compound also gave a chromatographic logD in [2] of 4.9. The compound further yielded a solubility at 4 h in data set [3] of 0.088 mg/mL (≈ 191 µM). The MRT in [4] was found to be 4.8 h. The same compound had a clearance in data set [11] of 3.24 L/h/kg. The Vd in [12] worked out at 13 L/kg. For the same compound, in data set [6], the bioavailability was 100%. Also, the fraction unbound in data set [7] is 0.04. In addition, the CL free in data set [5] is 81 L/h/kg. The same compound displayed a Vduss in [8] of 330 L/kg.

Usually IC50 stands for the point on the concentration scale where inhibition reaches its midpoint. One may read the chromatographic logD as a lipophilicity value derived from retention on a column. High values mean higher lipophilicity, low ones lower lipophilicity. As usually defined, the solubility is the dissolved amount per volume that the medium holds. Read a low solubility as a poorly soluble substance. The term MRT denotes the average time that molecules of a dose stay in the body. As usually defined, the bioavailability is dose-corrected exposure relative to a reference, in per cent. What is called fraction unbound is free concentration divided by total concentration. The term clearance denotes the volume of plasma or blood freed of the substance per unit of time. Lower therefore signals a low capacity for elimination. The term Papp denotes the rate of passage across a membrane or cell layer, normalised by area and donor concentration.
